The structures appear in SMILES notation.

The target of this assay is T1, Full length human CDC7 protein co-expressed with DBF4 (Homo sapiens, UniProt O00311).
T1 construct: Full length human CDC7 protein co-expressed with DBF4; purchased SignalChem (China)
T1 sequence (O00311 whole entry): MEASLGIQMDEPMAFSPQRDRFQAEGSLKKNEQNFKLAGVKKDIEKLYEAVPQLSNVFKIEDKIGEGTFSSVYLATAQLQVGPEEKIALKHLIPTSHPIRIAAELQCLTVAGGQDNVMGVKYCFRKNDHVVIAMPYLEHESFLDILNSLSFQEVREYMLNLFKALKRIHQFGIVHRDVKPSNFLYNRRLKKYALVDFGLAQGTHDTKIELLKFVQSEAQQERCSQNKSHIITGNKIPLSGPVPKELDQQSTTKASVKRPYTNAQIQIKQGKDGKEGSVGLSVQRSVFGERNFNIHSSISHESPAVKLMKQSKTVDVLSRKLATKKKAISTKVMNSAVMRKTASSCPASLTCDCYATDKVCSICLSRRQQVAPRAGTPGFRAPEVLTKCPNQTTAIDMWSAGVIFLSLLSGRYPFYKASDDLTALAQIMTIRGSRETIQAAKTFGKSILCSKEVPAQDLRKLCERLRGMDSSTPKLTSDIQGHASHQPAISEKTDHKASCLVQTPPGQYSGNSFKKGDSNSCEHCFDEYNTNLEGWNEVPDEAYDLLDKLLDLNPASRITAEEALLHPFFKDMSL
T1 sequence (Q9UBU7 whole entry partner): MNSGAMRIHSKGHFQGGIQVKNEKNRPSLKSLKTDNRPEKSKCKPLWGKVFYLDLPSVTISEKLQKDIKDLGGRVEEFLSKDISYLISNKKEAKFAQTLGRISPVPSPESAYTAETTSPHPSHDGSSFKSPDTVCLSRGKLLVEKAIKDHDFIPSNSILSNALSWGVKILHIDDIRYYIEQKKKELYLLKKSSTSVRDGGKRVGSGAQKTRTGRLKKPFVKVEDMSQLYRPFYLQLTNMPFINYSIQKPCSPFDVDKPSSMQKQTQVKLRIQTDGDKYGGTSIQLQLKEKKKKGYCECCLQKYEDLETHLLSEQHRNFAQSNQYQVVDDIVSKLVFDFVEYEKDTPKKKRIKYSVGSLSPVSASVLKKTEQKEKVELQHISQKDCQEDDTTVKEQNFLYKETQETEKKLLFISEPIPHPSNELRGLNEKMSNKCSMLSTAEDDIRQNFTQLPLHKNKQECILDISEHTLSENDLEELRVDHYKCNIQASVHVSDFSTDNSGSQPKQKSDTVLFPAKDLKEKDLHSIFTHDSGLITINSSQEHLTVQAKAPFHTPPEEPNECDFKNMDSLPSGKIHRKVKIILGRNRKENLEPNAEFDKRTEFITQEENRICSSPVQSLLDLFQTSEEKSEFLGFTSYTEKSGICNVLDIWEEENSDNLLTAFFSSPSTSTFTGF
In words: CDC7 Kinase Biochemical Assay (ADP-Glo, PDKtide substrate). As to conditions: 0.1 nM CDC7/DBF4, 1 μM ATP, 10 μM PDKtide, 4 h reaction. The method, then:
CDC7 Kinase Biochemical Assay PROTOCOL:
Full length human CDC7 protein co-expressed with DBF4 was purchased from SignalChem (China). CDC7 kinase activity was determined with PDKtide (SignalChem) as a substrate and by measuring ADP production using the ADP-Glo™ Kinase Assay kit (Promega) following the manufacturer's instructions. The kinase reaction was performed using the following conditions: Buffer: 40 mM Tris pH 7.5, 20 mM MgCl2, 0.1 mg/mL BSA and 50 μM DTT. Final reaction mix contained 0.1 nM CDC7/DBF4, 1 μM ATP and 10 μM PDKtide. The kinase reaction time was 4 h. The ADP-Glo signal was measured using an EnVision plate reader (PerkinELmer).
Percent inhibition of CDC7 kinase activity was calculated based on the following formula:
[formula] • SSample: the signal of compounds • SHigh Ctrl: the signal of high control (DMSO) • SLow Ctrl: the signal of low control (positive control CDC7 inhibitor)
As for `CC1(CO)OCCc2c1[nH]c(=O)c1sc(-c3cn[nH]c3)cc21` (single isomer, unassigned) [Compound 35], the IC50 – broadly, the concentration at which inhibition is half-maximal – was ≤ 1 nM. The same measure for `CC(C)(O)C1(C)OCCc2c1[nH]c(=O)c1sc(-c3cn[nH]c3)cc21` (single isomer, unassigned) [Compound 56]: > 10 nM. The same measure for `Cc1n[nH]cc1-c1cc2c3c([nH]c(=O)c2s1)C(O)(C(C)C)COC3` (single isomer, unassigned) [Compound 24]: ≤ 1 nM. Regarding `CC(F)(F)CC1(O)COCc2c1[nH]c(=O)c1sc(-c3cn[nH]c3)cc21` (stereo not drawn) [Compound 86, 4-(2,2-difluoropropyl)-4-hydroxy-8-(1H-pyrazol-4-yl)-1,3,4,5-tetrahydro-6H-pyrano[4,3-b]thieno[3,2-d]pyridin-6-one], the IC50 was ≤ 1 nM. With `CC(C)C1(O)COCc2c1[nH]c(=O)c1sc(-c3ccncc3)cc21` (single isomer, unassigned) [Compound 45] the figure was > 10 nM; with `COC1(C)CCCc2[nH]c(=O)c3sc(-c4cn[nH]c4)cc3c21` (single isomer, unassigned) [Compound 38], 1 to 10 nM. The same measure for `CC(C)(C)C1(O)COCc2c1[nH]c(=O)c1sc(-c3ccncc3F)cc21` (single isomer, unassigned) [Compound 60]: 1 to 10 nM; for `O=c1[nH]c2c(c3cc(-c4cn[nH]c4)sc13)CCCC2` [Compound 1, 2-(1H-pyrazol-4-yl)-6,7,8,9-tetrahydrothieno[2,3-c]quinolin-4(5H)-one]: ≤ 1 nM; for `CN(C)C1(C)COCc2c1[nH]c(=O)c1sc(-c3cn[nH]c3)cc21` (single isomer, unassigned) [Compound 82]: 1 to 10 nM. Regarding `O=c1[nH]c2c(c3cc(-c4cn[nH]c4)sc13)COCC2(O)C(F)(F)F` (single isomer, unassigned) [Compound 28], the IC50 was ≤ 1 nM. The same measure for `CC(=O)N1Cc2c([nH]c(=O)c3sc(-c4cn[nH]c4)cc23)C(O)(C(C)(C)C)C1` (stereo not drawn) [Compound 94, 2-acetyl-4-tert-butyl-4-hydroxy-8-(1H-pyrazol-4-yl)-3,5-dihydro-1H-thieno[2,3-c][1,6]naphthyridin-6-one]: ≤ 1 nM; for `O=c1[nH]c2c(c3c(F)c(-c4cn[nH]c4)sc13)CC(F)(F)CC2` [Compound 2, 1,8,8-trifluoro-2-(1H-pyrazol-4-yl)-5,6,7,9-tetrahydrothieno[2,3-c]quinolin-4-one]: ≤ 1 nM.

As for `CC(C)(C)C1(O)COCc2c1[nH]c(=O)c1sc(-c3c[nH]nc3F)cc21` (single isomer, unassigned) [Compound 65], the IC50 is > 10 nM. With `CC1(CO)OCCc2c1[nH]c(=O)c1sc(-c3cn[nH]c3)cc21` (single isomer, unassigned) [Compound 34] the figure was > 10 nM.

On to `CCC(C)(C)C1(O)COCc2c1[nH]c(=O)c1sc(-c3cn[nH]c3)cc21` (single isomer, unassigned) [Compound 80], for which the IC50 is > 10 nM. The same measure for `CC(C)C1(O)CCCc2c1[nH]c(=O)c1sc(-c3cn[nH]c3)cc21` (single isomer, unassigned) [Compound 88]: 1 to 10 nM. The same measure for `O=c1[nH]c2c(c3cc(-c4cn[nH]c4)sc13)COCC2(O)C1CCCC1` (single isomer, unassigned) [Compound 78]: ≤ 1 nM; for `O=c1[nH]c2c(c3cc(-c4cn[nH]c4)sc13)COCC2(O)C1CCCC1` (single isomer, unassigned) [Compound 79]: 1 to 10 nM. The same measure for `Cc1n[nH]cc1-c1cc2c3c([nH]c(=O)c2s1)C(O)(C(C)(C)C)COC3` (single isomer, unassigned) [Compound 92]: ≤ 1 nM; for `O=c1[nH]c2c(c3cc(-c4cn[nH]c4)sc13)CCC[C@H]2N1CCC(F)(F)C1` (single isomer, unassigned) [Compound 5]: ≤ 1 nM.

As to `CNC1(C)COCc2c1[nH]c(=O)c1sc(-c3cn[nH]c3)cc21` (stereo not drawn) [Compound 84, 4-methyl-4-(methylamino)-8-(1H-pyrazol-4-yl)-1,3,4,5-tetrahydro-6H-pyrano[4,3-b]thieno[3,2-d]pyridin-6-one], the IC50 was ≤ 1 nM. The same measure for `O=c1[nH]c2c(c3cc(-c4cn[nH]c4)sc13)CCC[C@@H]2O` (single isomer, unassigned) [Compound 3]: 1 to 10 nM; for `Cn1nccc1-c1cc2c3c([nH]c(=O)c2s1)C(O)(C(F)(F)F)COC3` (single isomer, unassigned) [Compound 31]: 1 to 10 nM; for `CC(C)C1(O)COCc2c1[nH]c(=O)c1sc(-c3cn[nH]c3)cc21` (single isomer, unassigned) [Compound 17]: 1 to 10 nM. Regarding `CC(F)(F)C1(O)COCc2c1[nH]c(=O)c1sc(-c3cn[nH]c3)cc21` (single isomer, unassigned) [Compound 95], the IC50 lay in the range of 1 to 10 nM. In turn, `Cc1n[nH]cc1-c1cc2c3c([nH]c(=O)c2s1)C(O)(C(C)C)COC3` (single isomer, unassigned) [Compound 25] had an IC50 of 1 to 10 nM. Take `Cc1cnccc1-c1cc2c3c([nH]c(=O)c2s1)C(O)(C(C)(C)C)COC3` (single isomer, unassigned) [Compound 70]: the IC50 is > 10 nM. As to `CC(C)(C)C1(O)COCc2c1[nH]c(=O)c1sc(-c3ccnnc3)cc21` (single isomer, unassigned) [Compound 67], the IC50 is ≤ 1 nM. As for `COCC1(O)CC(F)(F)Cc2c1[nH]c(=O)c1sc(-c3cn[nH]c3)cc21` (single isomer, unassigned) [Compound 48], the IC50 is > 10 nM.

Turning to `CCC1(O)COCc2c1[nH]c(=O)c1sc(-c3cn[nH]c3)cc21` (single isomer, unassigned) [Compound 19], the IC50 is > 10 nM. With `O=c1[nH]c2c(c3cc(-c4cn[nH]c4)sc13)CCC[C@H]2O` (single isomer, unassigned) [Compound 4] the figure was ≤ 1 nM; with `COC1(C)CC(F)(F)Cc2c1[nH]c(=O)c1sc(-c3cn[nH]c3)cc21` (single isomer, unassigned) [Compound 53], ≤ 1 nM.

For the compound `CC(C)C1(O)COCc2c1[nH]c(=O)c1sc(-c3ccns3)cc21` (single isomer, unassigned) [Compound 47], the IC50 was > 10 nM. The same measure for `CC(C)(C)C1(O)COCc2c1[nH]c(=O)c1sc(-c3ncncc3Cl)cc21` (single isomer, unassigned) [Compound 64]: 1 to 10 nM; for `COC1(C)CC(F)(F)Cc2c1[nH]c(=O)c1sc(-c3cn[nH]c3)cc21` (single isomer, unassigned) [Compound 52]: 1 to 10 nM. With `O=c1[nH]c2c(c3cc(-c4ccncc4)sc13)C1CCC2(O)CC1` [Compound 9, 6-hydroxy-2-(pyridin-4-yl)-6,7,8,9-tetrahydro-6,9-ethanothieno[2,3-c]quinolin-4(5H)-one] the figure was ≤ 1 nM; with `Cn1nccc1-c1cc2c3c([nH]c(=O)c2s1)C(O)(C(C)(C)C)COC3` (single isomer, unassigned) [Compound 90], > 10 nM; with `Cc1n[nH]cc1-c1cc2c3c([nH]c(=O)c2s1)C(O)(C(F)(F)F)COC3` (single isomer, unassigned) [Compound 33], 1 to 10 nM. The same measure for `CO[C@@H]1COCc2c1[nH]c(=O)c1sc(-c3cn[nH]c3)cc21` (single isomer, unassigned) [Compound 11]: > 10 nM.

For the origin of these results see patent US20240199634A1, “CYCLIC COMPOUNDS AND METHODS OF USING SAME” (SCHRÖDINGER, INC., priority 2021, published 2024).
